# Assay results from patent US6737383B1, “Herbicidal oxadiazolidines” (priority 1999, dated 2004).
# Tests used:
# soybean = experiment: Test B pre/postemergence soybean; assay type: in vivo, Glycine max
# How it was run: (§1)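 Response is a visual 0-to-10 score relative to untreated plants, where 0 means no effect and 10 means complete control, taken twelve to sixteen days after application. Treatments went onto soil at planting and onto foliage of 1- to 4-leaf plants, using a surfactant-containing non-phytotoxic solvent.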
# giant foxtail = experiment: Test B pre/postemergence giant foxtail; assay type: in vivo, Setaria faberii
# How it was run: as §1
# velvetleaf = experiment: Test B pre/postemergence velvetleaf; assay type: in vivo, Abutilon theophrasti
# How it was run: as §1
# crabgrass = experiment: Test B pre/postemergence crabgrass; assay type: in vivo, Digitaria sanguinalis
# How it was run: as §1
# corn = experiment: Test B pre/postemergence corn; assay type: in vivo, Zea mays
# How it was run: as §1
# wheat = experiment: Test B pre/postemergence wheat; assay type: in vivo, Triticum aestivum
# How it was run: as §1
# surinam grass = experiment: Test B pre/postemergence surinam grass; assay type: in vivo, Brachiaria decumbens
# How it was run: as §1
# cocklebur = experiment: Test B pre/postemergence cocklebur; assay type: in vivo, Xanthium strumarium
# How it was run: as §1
# wild oat = experiment: Test B pre/postemergence wild oat; assay type: in vivo, Avena fatua
# How it was run: as §1
# purple nutsedge = experiment: Test B pre/postemergence purple nutsedge; assay type: in vivo, Cyperus rotundus; conditions: for Plant response rating, Nutsedge: scale of 0 to 10 where 0 is no effect and 10 is complete control
# How it was run: as §1
# sugar beet = experiment: Test B pre/postemergence sugar beet; assay type: in vivo, Beta vulgaris
# How it was run: as §1
# blackgrass = experiment: Test B pre/postemergence blackgrass; assay type: in vivo, Alopecurus myosuroides
# How it was run: as §1
# morningglory = experiment: Test B pre/postemergence morningglory; assay type: in vivo, Ipomoea hederacea
# How it was run: as §1
# rape = experiment: Test B pre/postemergence rape; assay type: in vivo, Brassica napus
# How it was run: as §1
# pigweed = experiment: Test B pre/postemergence pigweed; assay type: in vivo, Amaranthus retroflexus
# How it was run: as §1
# bedstraw = experiment: Test B pre/postemergence bedstraw; assay type: in vivo, Galium aparine
# How it was run: as §1
# [1] = Postemergence, Rate 62 g/ha, scale of 0 to 10, 0 is no effect, 10 is complete control
# [2] = Postemergence, Rate 500 g/ha, scale of 0 to 10 where 0 is no effect and 10 is complete control
# [3] = Preemergence, Rate 62 g/ha, scale 0 to 10 (0 no effect, 10 complete control)
# [4] = Preemergence, Rate 125 g/ha, scale 0 to 10, 0 is no effect, 10 is complete control
# [5] = Preemergence, Rate 500 g/ha, scale of 0 to 10 where 0 is no effect and 10 is complete control
# [6] = Rate 250 g/ha, Postemergence, scale of 0 to 10 where 0 is no effect and 10 is complete control
# [7] = Postemergence, Rate 125 g/ha, scale 0 to 10, 0 is no effect, 10 is complete control
smiles,measurement,setting,value
COCCOCn1c(=O)on(C(=O)N(c2ccccc2)C(C)C)c1=O [Compound 564],Soybean plant response rating,soybean; [1],0
same,"Plant response rating, Soybean",soybean; [2],5
same,Soybean plant response rating,soybean; [3],0
same,Soybean plant response rating,soybean; [4],0
same,Soybean plant response rating (0 to 10 scale),"soybean; Preemergence, Rate 250 g/ha",4
same,Soybean plant response rating,soybean; [5],8
same,"Plant response rating, Soybean",soybean; [6],5
same,Giant foxtail plant response rating,giant foxtail; [1],2
same,Giant foxtail plant response rating,giant foxtail; [7],3
same,"Plant response rating, Giant foxtail",giant foxtail; [2],9
same,Giant foxtail plant response rating,giant foxtail; [3],9
same,Giant foxtail plant response rating,giant foxtail; [4],9
same,Giant foxtail plant response rating (0 to 10 scale),"giant foxtail; Preemergence, Rate 250 g/ha",9
same,Giant foxtail plant response rating,giant foxtail; [5],9
same,"Plant response rating, Giant foxtail",giant foxtail; [6],7
same,Velvetleaf plant response rating,velvetleaf; [1],0
same,"Plant response rating, Velvetleaf",velvetleaf; [2],3
same,Velvetleaf plant response rating,velvetleaf; [3],0
same,Velvetleaf plant response rating,velvetleaf; [4],2
same,Velvetleaf plant response rating (0 to 10 scale),"velvetleaf; Preemergence, Rate 250 g/ha",6
same,Velvetleaf plant response rating,velvetleaf; [5],8
same,"Plant response rating, Velvetleaf",velvetleaf; [6],2
same,Crabgrass plant response rating,crabgrass; [1],2
same,Crabgrass plant response rating,crabgrass; [7],3
same,"Plant response rating, Crabgrass",crabgrass; [2],9
same,Crabgrass plant response rating,crabgrass; [3],7
same,Crabgrass plant response rating,crabgrass; [4],8
same,Crabgrass plant response rating (0 to 10 scale),"crabgrass; Preemergence, Rate 250 g/ha",9
same,Crabgrass plant response rating,crabgrass; [5],9
same,"Plant response rating, Crabgrass",crabgrass; [6],8
same,Corn plant response rating,corn; [1],0
same,Corn plant response rating,corn; [7],0
same,"Plant response rating, Corn",corn; [2],6
same,Corn plant response rating,corn; [3],2
same,Corn plant response rating,corn; [4],4
same,Corn plant response rating (0 to 10 scale),"corn; Preemergence, Rate 250 g/ha",4
same,Corn plant response rating,corn; [5],9
same,"Plant response rating, Corn",corn; [6],0
same,Wheat plant response rating,wheat; [1],0
same,"Plant response rating, Wheat",wheat; [2],2
same,Wheat plant response rating,wheat; [3],0
same,Wheat plant response rating,wheat; [4],6
same,Wheat plant response rating (0 to 10 scale),"wheat; Preemergence, Rate 250 g/ha",7
same,Wheat plant response rating,wheat; [5],7
same,B. signalgrass plant response rating,surinam grass; [1],0
same,"Plant response rating, B. signalgrass",surinam grass; [2],8
same,B. signalgrass plant response rating,surinam grass; [3],2
same,B. signalgrass plant response rating,surinam grass; [4],6
same,"B. signalgrass plant response rating (0 to 10 scale, 0 is no effect, 10 is complete control)","surinam grass; Preemergence, Rate 250 g/ha",6
same,B. signalgrass plant response rating,surinam grass; [5],7
same,"Plant response rating, B. signalgrass",surinam grass; [6],3
same,Cocklebur plant response rating,cocklebur; [1],0
same,Cocklebur plant response rating,cocklebur; [7],0
same,"Plant response rating, Cocklebur",cocklebur; [2],2
same,Cocklebur plant response rating,cocklebur; [3],0
same,Cocklebur plant response rating,cocklebur; [4],0
same,Cocklebur plant response rating (0 to 10 scale),"cocklebur; Preemergence, Rate 250 g/ha",0
same,Cocklebur plant response rating,cocklebur; [5],0
same,"Plant response rating, Cocklebur",cocklebur; [6],0
same,Wild oats plant response rating,wild oat; [1],0
same,"Plant response rating, Wild oats",wild oat; [2],2
same,Wild oats plant response rating,wild oat; [3],0
same,Wild oats plant response rating,wild oat; [4],0
same,Wild oats plant response rating (0 to 10 scale),"wild oat; Preemergence, Rate 250 g/ha",4
same,Wild oats plant response rating,wild oat; [5],7
same,Nutsedge plant response rating,purple nutsedge; [1],0
same,"Plant response rating, Nutsedge","purple nutsedge; Postemergence, Rate 500 g/ha",0
same,Nutsedge plant response rating,purple nutsedge; [3],0
same,Nutsedge plant response rating,purple nutsedge; [4],0
same,"Plant response rating, Nutsedge","purple nutsedge; Rate 250 g/ha, Postemergence",0
same,Sugarbeets plant response rating,sugar beet; [1],0
same,"Plant response rating, Sugarbeets",sugar beet; [2],2
same,Sugarbeets plant response rating,sugar beet; [3],2
same,Sugarbeets plant response rating,sugar beet; [4],2
same,Sugarbeets plant response rating (0 to 10 scale),"sugar beet; Preemergence, Rate 250 g/ha",3
same,Sugarbeets plant response rating,sugar beet; [5],3
same,"Plant response rating, Sugarbeets",sugar beet; [6],2
same,Blackgrass plant response rating,blackgrass; [1],0
same,Blackgrass plant response rating,blackgrass; [7],4
same,"Plant response rating, Blackgrass",blackgrass; [2],4
same,Blackgrass plant response rating,blackgrass; [3],0
same,Blackgrass plant response rating,blackgrass; [4],5
same,Blackgrass plant response rating (0 to 10 scale),"blackgrass; Preemergence, Rate 250 g/ha",5
same,Blackgrass plant response rating,blackgrass; [5],9
same,"Plant response rating, Blackgrass",blackgrass; [6],4
same,Morningglory plant response rating,morningglory; [1],5
same,Morningglory plant response rating,morningglory; [7],7
same,"Plant response rating, Morningglory",morningglory; [2],10
same,Morningglory plant response rating,morningglory; [3],0
same,Morningglory plant response rating,morningglory; [4],2
same,Morningglory plant response rating (0 to 10 scale),"morningglory; Preemergence, Rate 250 g/ha",2
same,Morningglory plant response rating,morningglory; [5],4
same,"Plant response rating, Morningglory",morningglory; [6],10
same,Rape plant response rating,rape; [1],0
same,Rape plant response rating,rape; [7],0
same,"Plant response rating, Rape",rape; [2],2
same,Rape plant response rating,rape; [3],0
same,Rape plant response rating,rape; [4],0
same,Rape plant response rating (0 to 10 scale),"rape; Preemergence, Rate 250 g/ha",0
same,Rape plant response rating,rape; [5],3
same,"Plant response rating, Rape",rape; [6],2
same,Redroot pigweed plant response rating,pigweed; [1],3
same,"Plant response rating, Redroot pigweed",pigweed; [2],3
same,Redroot pigweed plant response rating,pigweed; [3],0
same,Redroot pigweed plant response rating,pigweed; [4],0
same,Redroot pigweed plant response rating (0 to 10 scale),"pigweed; Preemergence, Rate 250 g/ha",3
same,Redroot pigweed plant response rating,pigweed; [5],3
same,"Plant response rating, Redroot pigweed",pigweed; [6],3
same,Bedstraw plant response rating,bedstraw; [1],0
same,"Plant response rating, Bedstraw",bedstraw; [2],0
same,Bedstraw plant response rating,bedstraw; [3],0
same,Bedstraw plant response rating,bedstraw; [4],0
same,Bedstraw plant response rating (0 to 10 scale),"bedstraw; Preemergence, Rate 250 g/ha",0
same,Bedstraw plant response rating,bedstraw; [5],0
